# Reference: ChEMBL document CHEMBL1201862, “PubChem BioAssay data set” (2004)
# The source made the active and inactive calls.
# Key:
# [1] = P. falciparum late gametocyte killing, dose response, luminescence (AID 1117278); format: functional, cell-based;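 further: gametocytes exposed to compound for 24 hours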
# [2] = Jurkat T cell cytotoxicity, dose response, cytotoxicity control for P. falciparum gametocyte viability project, luminescence (AID 1117277); format: functional, cell-based;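 further: potency reflects loss of cellular ATP meaning fewer viable cells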
# [3] = P. falciparum 3D7-ScDHODH growth inhibitors, dose response, SYBR Green, dry powder samples (AID 1159570); format: functional, cell-based;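 further: parasite growth measured after 72 hours of compound exposure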
# [4] = P. falciparum Dd2 growth inhibitors, dose response, SYBR Green, cherry-picked samples (AID 1159567); format: functional, cell-based
# [5] = P. falciparum Dd2 growth inhibitors, dose response, SYBR Green, dry powder samples (AID 1159566); format: functional, cell-based;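 further: potency for growth inhibition with lower SYBR green DNA signal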
# [6] = P. falciparum ATP4 D1247Y mutant growth inhibitors, dose response, NITD609-resistant line, SYBR Green, dry powder (AID 1159571); format: functional, cell-based;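 further: parasites synchronized at ring stage by sorbitol before testing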
# [7] = target: T1, Calpain-2 catalytic subunit (Sus scrofa, UniProt P43367); test: pig calpain II inhibitor potency, dose response, biochemical, fluorogenic peptide substrate (AID 1420); format: functional
# T1 sequence (P43367 whole entry): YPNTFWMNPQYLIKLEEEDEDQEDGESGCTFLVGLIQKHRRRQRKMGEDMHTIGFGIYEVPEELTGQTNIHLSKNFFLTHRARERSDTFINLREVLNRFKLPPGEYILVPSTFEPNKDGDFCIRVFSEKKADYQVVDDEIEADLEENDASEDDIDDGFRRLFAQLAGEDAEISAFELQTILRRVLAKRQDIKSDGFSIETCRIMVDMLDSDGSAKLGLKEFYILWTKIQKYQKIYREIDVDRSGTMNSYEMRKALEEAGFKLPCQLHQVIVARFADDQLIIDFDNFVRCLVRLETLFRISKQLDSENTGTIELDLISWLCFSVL
# [8] = inhibitors of Vif binding to APOBEC3G peptide, primary screen, biochemical, TR-FRET, GST-Vif 1-94, biotin-A3G peptide, dose response retest (AID 1117319); format: functional;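 further: TR-FRET signal of purified GST-Vif binding a biotinylated A3G peptide; inhibitors lower the FRET signal by blocking Vif and A3G binding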
# [9] = A Cell Based Secondary Assay To Explore Cytotoxicity of Compounds that Sensitize Mycobacterium Tuberculosis to Beta-Lactam Antibiotics.; format: functional
# [10] = HeLa cell cytotoxicity, dose response, cytotoxicity control for MgcRacGAP inhibitor project (AID 624300); format: functional
# [11] = target: T2, Rac GTPase-activating protein 1 (Homo sapiens, UniProt Q9H0H5); test: MgcRacGAP GTPase-activating activity inhibitors, confirmation, biochemical, ADP Hunter fluorescence, primary and confirmatory (AID 624330); format: functional
# T2 sequence (Q9H0H5 whole entry): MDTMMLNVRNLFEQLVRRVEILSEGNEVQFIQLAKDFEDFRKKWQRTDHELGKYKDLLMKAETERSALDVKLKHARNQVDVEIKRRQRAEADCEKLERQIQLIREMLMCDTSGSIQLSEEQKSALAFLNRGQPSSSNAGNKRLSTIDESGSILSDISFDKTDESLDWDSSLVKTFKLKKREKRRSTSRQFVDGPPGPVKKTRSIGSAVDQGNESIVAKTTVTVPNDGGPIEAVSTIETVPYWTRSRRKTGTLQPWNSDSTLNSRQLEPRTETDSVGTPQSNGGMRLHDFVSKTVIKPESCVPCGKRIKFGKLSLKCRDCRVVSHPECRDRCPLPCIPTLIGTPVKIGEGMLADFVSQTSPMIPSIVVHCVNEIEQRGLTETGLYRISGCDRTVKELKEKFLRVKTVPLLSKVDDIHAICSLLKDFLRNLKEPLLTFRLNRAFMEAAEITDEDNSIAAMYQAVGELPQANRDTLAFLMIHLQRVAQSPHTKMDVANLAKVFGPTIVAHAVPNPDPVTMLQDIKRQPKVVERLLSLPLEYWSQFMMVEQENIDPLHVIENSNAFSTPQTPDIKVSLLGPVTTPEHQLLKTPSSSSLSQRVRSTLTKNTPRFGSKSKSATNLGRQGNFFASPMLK
# HeLa = test: HeLa cell cytotoxicity, dose response, cytotoxicity control, 24 h, cherry-picked samples (AID 504726); format: functional, cell-based; details: Homo sapiens;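 further: potency for cytotoxicity as loss of luminescence signal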
# Large T antigen = Large T antigen (Simian virus 40, UniProt P03070); format: functional, Betapolyomavirus macacae;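 further: Confirmatory-stage PubChem screen for compounds that inhibit SV40 T antigen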
# Large T antigen, sequence (P03070 whole entry): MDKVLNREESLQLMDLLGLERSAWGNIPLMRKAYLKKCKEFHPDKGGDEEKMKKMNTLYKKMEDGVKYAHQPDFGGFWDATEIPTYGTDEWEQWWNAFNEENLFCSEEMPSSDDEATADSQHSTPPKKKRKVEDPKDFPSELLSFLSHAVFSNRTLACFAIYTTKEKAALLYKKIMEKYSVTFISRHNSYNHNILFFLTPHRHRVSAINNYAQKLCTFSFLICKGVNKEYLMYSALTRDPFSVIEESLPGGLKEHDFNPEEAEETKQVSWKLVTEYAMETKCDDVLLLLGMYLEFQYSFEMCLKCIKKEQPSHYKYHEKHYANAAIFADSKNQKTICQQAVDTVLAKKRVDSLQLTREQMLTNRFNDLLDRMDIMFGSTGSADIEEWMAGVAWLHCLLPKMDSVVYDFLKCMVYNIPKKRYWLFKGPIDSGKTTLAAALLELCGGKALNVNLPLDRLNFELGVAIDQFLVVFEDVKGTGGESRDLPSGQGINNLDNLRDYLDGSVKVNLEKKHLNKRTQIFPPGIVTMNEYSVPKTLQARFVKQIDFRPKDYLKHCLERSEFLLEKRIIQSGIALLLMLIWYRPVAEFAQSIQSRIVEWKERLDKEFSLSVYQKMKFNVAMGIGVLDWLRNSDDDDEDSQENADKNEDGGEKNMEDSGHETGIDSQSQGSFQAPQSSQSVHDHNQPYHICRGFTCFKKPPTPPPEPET
# [12] = Luminescence Cell-Based Dose Retest to Confirm Inhibitors of Cancer Stem Cells. [Related pubchem assays (depositor defined):AID2717, AID2721]; format: functional; details: Homo sapiens
# [13] = target: Heat shock protein HSP 90-alpha (Homo sapiens, UniProt P07900); format: functional, organism-based
structure (smiles),measurement,setting,value
C1CCN(CCCNC2C3CC4CC(C3)CC2C4)C1 (configuration not stated),IC50,[1],> 109 µM (inactive)
same,IC50,[2],> 83.3 µM (inactive)
CCCCN(CC)CCNC(=O)CN(C)S(=O)(=O)c1ccc2c(c1)c(=O)n(C)c(=O)n2C,IC50,[1],> 109 µM (inactive)
same,IC50,[2],> 83.3 µM (inactive)
CN(C)S(=O)(=O)N(CC(=O)Nc1ccccc1)c1ccccc1,IC50,[1],> 109 µM (inactive)
same,IC50,[2],> 83.3 µM (inactive)
C[C@@H]1CN([C@H](C)CO)C(=O)c2cc(/C=C/c3ccccc3)cnc2O[C@H]1CN(C)C(=O)NC1CCCCC1,AC50,[3],2.03 µM (active)
same,AC50,[4],2.73 µM (active)
same,AC50,[5],1.06 µM (active)
same,AC50,[6],1.76 µM (active)
CCC(CC)C(=O)Nc1ccc(S(=O)(=O)Nc2nccs2)cc1,IC50,[7],11.7 µM (not active)
CCn1c(SCC(=O)n2c(C)c(C)c3ccccc32)nnc1-c1ccco1,IC50,[8],> 100 µM (active)
CC(=O)Nc1nonc1-c1nc2ccccc2n1CCC(C)C,CC50,[9],> 40 µM (active)
Cc1ccc(CN2CCN(Cc3ccccc3C(F)(F)F)CC2)cc1,CC50,[10],100 µM (active)
same,IC50,[11],40.4 µM (active)
COC(=O)C1=C(c2ccc(OC(F)(F)F)cc2)C[C@@H]2CC[C@H]1N2C(=O)NC1CCCCC1,AC50,HeLa,> 350 µM (inactive)
O=C(CCN1CCOCC1)c1ccc(N2CCCCC2)cc1,CC50,[9],29.2 µM (active)
COc1cc(-c2nc3cnccn3c2Nc2ccccc2)ccc1O,IC50,Large T antigen,5.05 µM (active)
COc1ccc(OC)c(/C(O)=C/C(=O)C(=O)Nc2ccccc2OC)c1,IC50,[8],> 100 µM (active)
Cc1cc2ccccn2c1C(=O)c1ccc([N+](=O)[O-])o1,CC50,[9],8.69 µM (active)
same,AC50,[12],2.84 µM (active)
same,AC50,[13],3.38 µM (active)
CC1=[N+](C)N(c2ccccc2)C(=O)C1/N=C/C=C/c1ccccc1 (configuration not stated),AC50,HeLa,308 µM (active)
Cc1ccc(N=Nc2ccc(N)cc2C)c(S(N)(=O)=O)c1,IC50,[8],> 100 µM (active)
COc1ccc(CN2CCN(Cc3ccccc3)CC2)c(OC)c1,IC50,[1],> 109 µM (inactive)
same,IC50,[2],> 83.3 µM (inactive)
CCOc1cccc(SCc2noc(C(=O)NCC3CCCO3)c2C(=O)O)c1 (configuration not stated),IC50,[8],> 100 µM (active)
